The results in this text go back to patent US11208412B2 (DAEGU-GYEONGBUK MEDICAL INNOVATION FOUNDATION, priority 2017, dated 2021).

What all share (experiment): Kinase selectivity, DiscoverX scanMAX Kinase assay panel (% control)
What all share (type): binding

Experiment [1] deals with T1, kinases of the scanMAX Kinase assay panel (Homo sapiens, UniProt Q9Y463).
T1 construct: purchased DiscoverX Co. (contract measurement) scanMAX Kinase assay panel
As to conditions: DYRK1B; 1 uM. The essentials: (§1)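 Read-out is % control, normalised so a positive-control compound sits at 0% and DMSO at 100%: (test − positive)/(negative − positive)×100. Each kinase received the compound at 1 uM in DMSO. A value below 35% counts as activity.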

Experiment [2] addresses T2, kinases of the scanMAX Kinase assay panel (Homo sapiens, UniProt Q13164).
T2 construct: purchased DiscoverX Co. (contract measurement) scanMAX Kinase assay panel
As to conditions: ERK5; 1 uM. The gist of the method:
as §1

In experiment [3] the target is T3, kinases of the scanMAX Kinase assay panel (Homo sapiens, UniProt Q15835).
T3 construct: purchased DiscoverX Co. (contract measurement) scanMAX Kinase assay panel
T3 sequence (Q15835 1-563): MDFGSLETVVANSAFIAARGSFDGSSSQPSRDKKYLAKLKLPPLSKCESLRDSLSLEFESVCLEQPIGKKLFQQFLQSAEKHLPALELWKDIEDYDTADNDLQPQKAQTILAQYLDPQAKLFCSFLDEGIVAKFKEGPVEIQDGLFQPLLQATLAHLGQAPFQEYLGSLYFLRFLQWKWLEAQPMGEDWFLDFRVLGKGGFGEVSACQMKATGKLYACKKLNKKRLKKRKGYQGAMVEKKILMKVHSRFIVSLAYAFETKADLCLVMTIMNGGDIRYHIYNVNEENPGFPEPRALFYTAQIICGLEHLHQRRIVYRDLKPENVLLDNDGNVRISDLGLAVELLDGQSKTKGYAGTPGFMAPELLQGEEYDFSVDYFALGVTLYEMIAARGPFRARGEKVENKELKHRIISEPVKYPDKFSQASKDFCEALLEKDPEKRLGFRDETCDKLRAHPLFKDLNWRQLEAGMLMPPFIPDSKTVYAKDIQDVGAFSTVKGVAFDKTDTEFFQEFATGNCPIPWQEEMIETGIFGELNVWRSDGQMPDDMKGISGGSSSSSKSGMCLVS
As to conditions: GRK1; 1 uM. The gist of the method:
as §1

In experiment [4] the target is T4, kinases of the scanMAX Kinase assay panel (Homo sapiens, UniProt Q8WU08).
T4 construct: purchased DiscoverX Co. (contract measurement) scanMAX Kinase assay panel
As to conditions: kinase YANK1; 1 uM in DMSO. The essentials:
as §1

In experiment [5] the target is T5, kinases of the scanMAX Kinase assay panel (Homo sapiens, UniProt P00533, T790M).
T5 construct: purchased DiscoverX Co. (contract measurement) scanMAX Kinase assay panel
As to conditions: EGFR(T790M); 1 uM. The gist of the method: as §1

In experiment [6] the target is T6, kinases of the scanMAX Kinase assay panel (Homo sapiens, UniProt P50750).
T6 construct: purchased DiscoverX Co. (contract measurement) scanMAX Kinase assay panel
The settings on record: CDK9; 1 uM. The essentials:
as §1

Experiment [7] deals with T7, kinases of the scanMAX Kinase assay panel (Homo sapiens, UniProt Q05397).
T7 construct: purchased DiscoverX Co. (contract measurement) scanMAX Kinase assay panel
As to conditions: FAK; 1 uM. The essentials:
as §1

Experiment [8] addresses T8, kinases of the scanMAX Kinase assay panel (Homo sapiens, UniProt O15197).
T8 construct: purchased DiscoverX Co. (contract measurement) scanMAX Kinase assay panel
T8 sequence (O15197 32-1021): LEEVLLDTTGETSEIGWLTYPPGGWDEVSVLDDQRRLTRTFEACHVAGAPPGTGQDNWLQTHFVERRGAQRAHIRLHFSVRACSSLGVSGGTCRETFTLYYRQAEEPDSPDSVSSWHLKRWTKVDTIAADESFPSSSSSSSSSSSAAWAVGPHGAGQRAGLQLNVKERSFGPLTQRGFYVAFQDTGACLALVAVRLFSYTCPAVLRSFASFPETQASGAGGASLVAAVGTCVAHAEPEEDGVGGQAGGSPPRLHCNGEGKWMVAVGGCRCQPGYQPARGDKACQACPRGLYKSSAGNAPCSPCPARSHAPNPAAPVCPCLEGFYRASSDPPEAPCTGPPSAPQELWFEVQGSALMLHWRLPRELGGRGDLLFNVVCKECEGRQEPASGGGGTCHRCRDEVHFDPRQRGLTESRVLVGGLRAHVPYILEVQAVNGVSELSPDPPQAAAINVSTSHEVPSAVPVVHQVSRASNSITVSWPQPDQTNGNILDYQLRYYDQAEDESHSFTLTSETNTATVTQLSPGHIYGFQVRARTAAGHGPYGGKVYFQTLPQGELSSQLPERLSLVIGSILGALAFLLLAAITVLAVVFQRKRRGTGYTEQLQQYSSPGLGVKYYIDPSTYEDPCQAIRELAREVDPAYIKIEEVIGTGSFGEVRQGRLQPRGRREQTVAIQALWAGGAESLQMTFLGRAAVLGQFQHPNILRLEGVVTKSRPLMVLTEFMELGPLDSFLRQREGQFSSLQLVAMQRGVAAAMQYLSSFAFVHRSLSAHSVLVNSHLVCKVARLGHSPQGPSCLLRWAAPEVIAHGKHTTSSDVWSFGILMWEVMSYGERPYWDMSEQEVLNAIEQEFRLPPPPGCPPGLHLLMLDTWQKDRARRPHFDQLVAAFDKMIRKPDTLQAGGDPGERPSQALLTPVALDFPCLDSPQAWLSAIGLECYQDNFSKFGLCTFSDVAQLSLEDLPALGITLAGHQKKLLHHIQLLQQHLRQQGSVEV
The settings on record: EPHB6; 1 uM. The gist of the method: as §1

Experiment [9] concerns the target T9, kinases of the scanMAX Kinase assay panel (Homo sapiens, UniProt O75460).
T9 construct: purchased DiscoverX Co. (contract measurement) scanMAX Kinase assay panel
As to conditions: ERN1; 1 uM. The essentials:
as §1

In experiment [10] the target is T10, kinases of the scanMAX Kinase assay panel (Homo sapiens, UniProt Q13555).
T10 construct: purchased DiscoverX Co. (contract measurement) scanMAX Kinase assay panel
The settings on record: CAMK2G; 1 uM. The gist of the method:
as §1

Experiment [11] has as its target T11, kinases of the scanMAX Kinase assay panel (Homo sapiens, UniProt P42684).
T11 construct: purchased DiscoverX Co. (contract measurement) scanMAX Kinase assay panel
As to conditions: ABL2; 1 uM. The essentials:
as §1

Experiment [12] has as its target T12, kinases of the scanMAX Kinase assay panel (Homo sapiens, UniProt Q05655).
T12 construct: purchased DiscoverX Co. (contract measurement) scanMAX Kinase assay panel
The settings on record: PRKCD; 1 uM. The essentials:
as §1

Experiment [13] has as its target T13, kinases of the scanMAX Kinase assay panel (Homo sapiens, UniProt Q9UPE1).
T13 construct: purchased DiscoverX Co. (contract measurement) scanMAX Kinase assay panel
As to conditions: kinase SRPK3; 1 uM in DMSO. The essentials: as §1

Experiment [14] concerns the target T14, kinases of the scanMAX Kinase assay panel (Homo sapiens, UniProt P11362).
T14 construct: purchased DiscoverX Co. (contract measurement) scanMAX Kinase assay panel
The settings on record: FGFR1; 1 uM. The gist of the method: as §1

T13 sequence (Q9UPE1 whole entry): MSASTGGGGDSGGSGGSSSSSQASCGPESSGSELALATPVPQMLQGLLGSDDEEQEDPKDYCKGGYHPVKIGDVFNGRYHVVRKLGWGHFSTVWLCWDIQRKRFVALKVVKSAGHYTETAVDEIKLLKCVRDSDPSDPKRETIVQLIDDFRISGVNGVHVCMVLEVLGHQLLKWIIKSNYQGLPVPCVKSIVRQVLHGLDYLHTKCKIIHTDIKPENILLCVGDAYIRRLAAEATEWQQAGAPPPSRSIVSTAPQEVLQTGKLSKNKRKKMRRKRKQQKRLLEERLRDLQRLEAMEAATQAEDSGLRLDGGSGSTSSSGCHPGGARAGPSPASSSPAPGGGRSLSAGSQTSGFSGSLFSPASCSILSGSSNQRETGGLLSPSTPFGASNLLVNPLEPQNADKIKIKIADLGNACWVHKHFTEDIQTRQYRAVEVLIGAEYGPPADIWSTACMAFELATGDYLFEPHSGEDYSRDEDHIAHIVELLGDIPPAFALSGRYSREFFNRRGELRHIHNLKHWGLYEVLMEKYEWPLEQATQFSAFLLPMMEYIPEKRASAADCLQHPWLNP
T6 sequence (P50750 whole entry): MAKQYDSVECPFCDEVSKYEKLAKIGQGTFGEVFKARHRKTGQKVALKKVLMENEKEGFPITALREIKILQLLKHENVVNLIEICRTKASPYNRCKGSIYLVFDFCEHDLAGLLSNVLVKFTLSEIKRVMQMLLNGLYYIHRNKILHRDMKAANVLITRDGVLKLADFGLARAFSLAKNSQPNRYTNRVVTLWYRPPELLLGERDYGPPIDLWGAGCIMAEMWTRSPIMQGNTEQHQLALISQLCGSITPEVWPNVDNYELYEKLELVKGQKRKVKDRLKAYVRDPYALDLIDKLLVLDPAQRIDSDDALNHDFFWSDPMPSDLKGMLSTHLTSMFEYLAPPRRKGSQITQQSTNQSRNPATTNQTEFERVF
T7 sequence (Q05397 whole entry): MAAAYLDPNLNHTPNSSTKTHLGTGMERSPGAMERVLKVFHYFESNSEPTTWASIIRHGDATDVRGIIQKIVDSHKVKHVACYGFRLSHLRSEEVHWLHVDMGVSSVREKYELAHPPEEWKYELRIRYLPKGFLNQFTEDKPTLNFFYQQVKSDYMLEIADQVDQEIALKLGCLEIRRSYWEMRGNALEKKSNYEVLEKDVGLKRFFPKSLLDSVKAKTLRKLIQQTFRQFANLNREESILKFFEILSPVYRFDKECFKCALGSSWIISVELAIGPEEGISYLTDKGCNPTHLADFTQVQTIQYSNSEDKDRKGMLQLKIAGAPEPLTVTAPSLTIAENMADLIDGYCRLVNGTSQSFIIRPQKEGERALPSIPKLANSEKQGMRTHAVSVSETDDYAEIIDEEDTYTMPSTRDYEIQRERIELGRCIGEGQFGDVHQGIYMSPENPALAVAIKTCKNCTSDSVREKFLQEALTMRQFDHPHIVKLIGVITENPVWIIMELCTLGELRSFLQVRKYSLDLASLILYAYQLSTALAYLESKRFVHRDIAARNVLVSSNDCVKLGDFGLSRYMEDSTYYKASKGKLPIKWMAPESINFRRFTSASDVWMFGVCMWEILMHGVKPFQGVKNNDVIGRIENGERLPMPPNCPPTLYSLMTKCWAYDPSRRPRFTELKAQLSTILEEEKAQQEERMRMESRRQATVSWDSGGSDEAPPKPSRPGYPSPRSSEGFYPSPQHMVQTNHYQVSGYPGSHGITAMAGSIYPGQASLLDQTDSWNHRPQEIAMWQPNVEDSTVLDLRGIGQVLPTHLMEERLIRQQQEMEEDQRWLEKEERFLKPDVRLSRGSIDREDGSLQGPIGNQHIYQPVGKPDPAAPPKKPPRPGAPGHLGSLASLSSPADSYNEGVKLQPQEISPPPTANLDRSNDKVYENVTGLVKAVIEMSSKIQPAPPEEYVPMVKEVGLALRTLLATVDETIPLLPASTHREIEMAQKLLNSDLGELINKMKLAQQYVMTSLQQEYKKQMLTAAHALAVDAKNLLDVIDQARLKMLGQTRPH
T14 sequence (P11362 22-822): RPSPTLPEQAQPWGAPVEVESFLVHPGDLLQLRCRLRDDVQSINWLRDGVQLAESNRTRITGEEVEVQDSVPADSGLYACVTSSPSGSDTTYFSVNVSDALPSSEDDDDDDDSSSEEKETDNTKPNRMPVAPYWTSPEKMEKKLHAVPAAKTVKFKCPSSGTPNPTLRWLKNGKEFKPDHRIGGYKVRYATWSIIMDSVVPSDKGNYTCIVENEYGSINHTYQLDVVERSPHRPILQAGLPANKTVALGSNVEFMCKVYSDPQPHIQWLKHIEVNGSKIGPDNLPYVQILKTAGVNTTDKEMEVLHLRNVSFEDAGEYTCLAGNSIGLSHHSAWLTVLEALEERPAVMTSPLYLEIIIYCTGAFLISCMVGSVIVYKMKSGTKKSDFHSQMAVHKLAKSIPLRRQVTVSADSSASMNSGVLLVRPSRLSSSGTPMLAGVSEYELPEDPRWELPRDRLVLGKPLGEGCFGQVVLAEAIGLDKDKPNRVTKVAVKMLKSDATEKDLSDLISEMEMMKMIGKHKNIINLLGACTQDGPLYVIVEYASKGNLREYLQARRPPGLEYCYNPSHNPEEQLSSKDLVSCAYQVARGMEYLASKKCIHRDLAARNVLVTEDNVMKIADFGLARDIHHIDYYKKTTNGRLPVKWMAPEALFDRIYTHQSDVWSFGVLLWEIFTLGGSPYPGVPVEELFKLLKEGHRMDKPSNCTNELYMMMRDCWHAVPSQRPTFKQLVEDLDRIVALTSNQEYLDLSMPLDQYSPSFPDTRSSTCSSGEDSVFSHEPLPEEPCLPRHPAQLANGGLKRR
T2 sequence (Q13164 whole entry): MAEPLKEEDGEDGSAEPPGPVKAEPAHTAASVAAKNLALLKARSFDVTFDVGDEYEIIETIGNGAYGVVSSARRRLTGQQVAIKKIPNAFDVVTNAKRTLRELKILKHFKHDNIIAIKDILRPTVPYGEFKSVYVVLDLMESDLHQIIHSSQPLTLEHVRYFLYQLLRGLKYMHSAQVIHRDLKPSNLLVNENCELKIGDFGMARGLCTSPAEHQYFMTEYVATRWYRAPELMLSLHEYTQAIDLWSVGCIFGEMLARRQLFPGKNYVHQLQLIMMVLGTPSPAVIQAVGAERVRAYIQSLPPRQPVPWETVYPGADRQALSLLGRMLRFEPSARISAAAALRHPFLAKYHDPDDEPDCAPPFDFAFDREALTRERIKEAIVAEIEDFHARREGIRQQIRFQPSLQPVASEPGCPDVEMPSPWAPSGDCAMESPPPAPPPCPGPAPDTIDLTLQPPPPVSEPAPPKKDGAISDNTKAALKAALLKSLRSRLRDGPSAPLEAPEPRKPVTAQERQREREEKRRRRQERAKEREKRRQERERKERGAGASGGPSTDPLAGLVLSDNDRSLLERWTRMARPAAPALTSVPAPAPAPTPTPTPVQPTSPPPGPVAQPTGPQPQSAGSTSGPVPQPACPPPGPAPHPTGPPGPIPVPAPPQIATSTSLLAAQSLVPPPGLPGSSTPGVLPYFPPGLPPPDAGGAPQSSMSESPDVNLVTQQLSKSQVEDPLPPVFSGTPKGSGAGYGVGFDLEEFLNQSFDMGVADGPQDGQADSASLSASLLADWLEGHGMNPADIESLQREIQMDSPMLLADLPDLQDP
T9 sequence (O75460 19-977): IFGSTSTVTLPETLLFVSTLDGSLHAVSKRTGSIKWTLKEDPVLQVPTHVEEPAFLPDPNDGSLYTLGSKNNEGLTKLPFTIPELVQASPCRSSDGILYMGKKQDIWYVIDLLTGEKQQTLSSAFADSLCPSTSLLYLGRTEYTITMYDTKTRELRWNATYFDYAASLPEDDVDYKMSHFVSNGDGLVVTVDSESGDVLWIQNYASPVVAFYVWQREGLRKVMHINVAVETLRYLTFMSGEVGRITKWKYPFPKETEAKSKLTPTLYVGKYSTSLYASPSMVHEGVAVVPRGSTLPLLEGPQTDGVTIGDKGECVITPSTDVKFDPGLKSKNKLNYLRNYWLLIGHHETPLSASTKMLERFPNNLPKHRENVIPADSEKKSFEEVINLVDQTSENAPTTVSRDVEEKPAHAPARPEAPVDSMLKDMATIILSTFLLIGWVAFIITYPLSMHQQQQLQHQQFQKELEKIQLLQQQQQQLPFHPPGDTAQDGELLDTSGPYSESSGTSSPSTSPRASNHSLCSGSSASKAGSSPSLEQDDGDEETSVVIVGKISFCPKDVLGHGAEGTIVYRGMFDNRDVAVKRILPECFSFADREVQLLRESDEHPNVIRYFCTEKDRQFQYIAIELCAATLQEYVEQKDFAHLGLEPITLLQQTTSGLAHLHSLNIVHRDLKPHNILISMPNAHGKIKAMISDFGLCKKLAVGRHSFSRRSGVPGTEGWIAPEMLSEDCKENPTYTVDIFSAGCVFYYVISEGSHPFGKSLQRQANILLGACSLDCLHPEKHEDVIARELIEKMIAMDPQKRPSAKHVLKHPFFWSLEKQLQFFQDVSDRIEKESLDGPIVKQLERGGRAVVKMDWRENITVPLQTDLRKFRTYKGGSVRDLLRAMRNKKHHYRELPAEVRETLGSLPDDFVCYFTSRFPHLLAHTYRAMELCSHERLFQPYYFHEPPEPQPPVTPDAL
T4 sequence (Q8WU08 whole entry): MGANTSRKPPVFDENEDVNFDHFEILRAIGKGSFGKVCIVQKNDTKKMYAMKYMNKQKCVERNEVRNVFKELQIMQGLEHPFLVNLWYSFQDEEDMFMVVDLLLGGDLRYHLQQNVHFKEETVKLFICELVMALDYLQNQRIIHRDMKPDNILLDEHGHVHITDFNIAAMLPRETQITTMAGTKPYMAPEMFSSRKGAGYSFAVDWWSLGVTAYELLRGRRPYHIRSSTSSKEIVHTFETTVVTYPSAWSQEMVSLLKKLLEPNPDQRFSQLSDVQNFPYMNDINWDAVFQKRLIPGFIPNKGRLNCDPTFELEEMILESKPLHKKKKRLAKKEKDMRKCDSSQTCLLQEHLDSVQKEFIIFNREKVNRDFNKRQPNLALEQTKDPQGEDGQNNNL

For `CNc1nc(Nc2ccc(C(=O)N3CCOCC3)cc2OC)nc2[nH]cc(C#N)c12` [Example 1, 2-((2-methoxy-4-(morpholine-4-carbonyl)phenyl)amino)-4-(methylamino)-7H-pyrrolo[2,3-d]pyrimidine-5-carbonitrile], the remaining binding at 1 µM in [1] was 13%; in experiment [2], 72%; in experiment [3], 72%; in experiment [4], 76%; in experiment [5] it was 61%; in experiment [6], 96%. Also, the remaining binding at 1 µM was found to be 55% in [7]; 84% in [8]; 57% in [9]; 88% in experiment [10]; 99% in [11]; 100% in [12]. For the same compound, the results for the remaining binding at 1 µM in experiment [13] and in experiment [14] were 93% and 97%, respectively.

In the case of `CC1(Nc2nc(Nc3cnn([C@H]4CCN(C5COC5)C[C@@H]4F)c3Cl)nc3[nH]cc(C#N)c23)CC1` [Example 52, 2-((5-chloro-1-((3S,4S)-3-fluoro-1-(oxetane-3-yl)piperidine-4-yl)-1H-pyrazole-4-yl)amino)((1-methylcyclopropyl)amino)-7H-pyrrolo[2,3-d]pyrimidine-5-carbonitrile], the remaining binding at 1 µM in experiment [1] was determined as 0.55%; in experiment [2], 13%; in experiment [3], 36%; in [4], 88%; in experiment [5], 1.3%; in experiment [6], 84%. The remaining binding at 1 µM in experiment [7] worked out at 0.3%; in [8], 3.7%; in [9], 28%; in experiment [10], 53%; in [11], 34%; in experiment [12] it was 81%. The remaining binding at 1 µM in experiment [13] was found to be 2.5%; in [14] it was 42%.

On to `CCNc1nc(Nc2ccc(C(=O)N3CCC(N4CCOCC4)CC3)cc2OC)nc2[nH]cc(C(F)(F)F)c12` [Example 104, (4-((4-(ethylamino)-5-(trifluoromethyl)-7H-pyrrolo[2,3-d]pyrimidine-2-yl)amino)-3-methoxyphenyl)(4-morpholinopiperidine-1-yl)methanone], for which the remaining binding at 1 µM turned out to be 0% in experiment [1]; 18% in experiment [2]; 67% in experiment [3]; 82% in experiment [4]; 41% in [5]; 100% in experiment [6]. The remaining binding at 1 µM was found to be 3.8% in experiment [7]; 95% in experiment [8]; 83% in [9]; 80% in [10]; 100% in experiment [11]; 100% in [12]. The remaining binding at 1 µM in experiment [13] and in [14] was 100% throughout.
